On the set-up of data set [1]: species or system athymic nude mice. Particulars: mouse, in vivo. As for the experimental part:
For the animal models of the second and third comparison groups, the organs were extracted on day 20 after the drug administration because the animals died within 20 days. After preparing tissues of each extracted organ into 10-μm thick sections, cell death in the organ was evaluated by staining cancerous tissues with annexin V. In addition, the tissues extracted from the major organs (heart, kidney, spleen, lung and liver) were stained with hematoxylin and eosin for investigation of the structural change in the tissues and toxicity.

The subject of data set [2] is HT-29 colorectal cancer cells. Nature of the data set: Tumor-treating effect in vivo, tumor volume depending on time, HT-29 tumor animal model. Particulars: HT-29 tumor in nude mice; FDOX or DOX 4 mg/kg intravenously, anti-PD-L1 antibody 10 mg/kg intraperitoneally, 3-day intervals. Further details: species or system athymic nude mice. As for the experimental part:
The following comparison groups were prepared to compare the efficiency of the test group.
Control group (control): identical to the test group except that no drug was administered.
First comparison group (FDOX): identical to the test group except that only the formulated drug conjugate (FDOX) was administered without the anti-PD-L1 antibody.
Second comparison group (DOX+PD-L1 Ab): identical to the test group except that 4 mg/kg of doxorubicin was administered intravenously instead of the formulated drug conjugate (FDOX).

Data set [3] in a line: In-vivo toxicity by body weight depending on time, and death, in tumor-bearing mice. Particulars: HT-29 tumor-bearing nude mice.
Protocol: Specifically, athymic nude mice (6-week-old, 20-25 g, male) purchased from Nara Bio (Gyenggi-do, Korea) were used. In order to express colorectal cancers in the male nude mice, a tumor animal model was prepared by subcutaneously inoculating 1×10^7 HT-29 colorectal cancer cells into left thighs. […] The formulated drug conjugate (FDOX) was administered intravenously at a concentration of 4 mg/kg, and the anti-PD-L1 antibody was administered intraperitoneally at a concentration of 10 mg/kg. A test group (FDOX+PD-L1 Ab) was prepared by administering the two therapeutic agents at 3-day intervals.
For the test group, the control group and the first, second and third comparison groups, tumor size was measured at 2-day intervals and calculated as maximum diameter×minimum diameter. In addition, the body weight of each group was measured at 2-day intervals to investigate in-vivo toxicity.

Molecules are shown by their SMILES.

Regarding `COc1cccc2c1C(=O)c1c(O)c3c(c(O)c1C2=O)C[C@@](O)(C(=O)CO)C[C@@H]3O[C@H]1C[C@H](N)[C@H](O)[C@H](C)O1` [DOX, doxorubicin], the “change in the major organs (H&E)” value in data set [1] was “long-term toxicity such as hemorrhage, disruption of tissue structure, enucleation”. For the same molecule, the “tumor growth (tumor volume depending on time)” value in data set [2] is “could be delayed but could not be completely inhibited”. The “in-vivo / systemic toxicity” value in data set [3] is listed as “fatal side effect leading to death”.
